Test results: ChEMBL document CHEMBL5678812, “Inhibitors of p21-activated kinases (PAKs)” (J Med Chem, 2015)

How the values were obtained:
[1] = target: MAP/microtubule affinity-regulating kinase 3 (Homo sapiens) (UniProt P27448); experiment: Inhibition of MARK3 (unknown origin) at 0.1 uM relative to control
[2] = target: Ephrin type-A receptor 2 (Homo sapiens) (UniProt P29317); experiment: Inhibition of EphA2 (unknown origin) at 0.1 uM relative to control
[3] = target: Tyrosine-protein kinase BTK (Homo sapiens) (UniProt Q06187); experiment: Inhibition of BTK (unknown origin) at 0.1 uM relative to control
[4] = target: Serine/threonine-protein kinase Chk1 (Homo sapiens) (UniProt O14757); experiment: Inhibition of CHK1 (unknown origin) at 0.1 uM relative to control
[5] = target: Serine/threonine-protein kinase 24 (Homo sapiens) (UniProt Q9Y6E0); experiment: Inhibition of MST3 (unknown origin) at 0.1 uM relative to control
[6] = target: Phosphorylase b kinase gamma catalytic chain, skeletal muscle/heart isoform (Homo sapiens) (UniProt Q16816); experiment: Inhibition of PhKgamma1 (unknown origin) at 0.1 uM relative to control
[7] = target: Mitogen-activated protein kinase kinase kinase kinase 4 (Homo sapiens) (UniProt O95819); experiment: Inhibition of MAP4K4 (unknown origin) at 0.1 uM relative to control
[8] = target: Mast/stem cell growth factor receptor Kit (Homo sapiens) (UniProt P10721); experiment: Inhibition of Kit (unknown origin) at 0.1 uM relative to control
[9] = target: Ephrin type-B receptor 4 (Homo sapiens) (UniProt P54760); experiment: Inhibition of EphB4 (unknown origin) at 0.1 uM relative to control
[10] = target: Serine/threonine-protein kinase PLK3 (Homo sapiens) (UniProt Q9H4B4); experiment: Inhibition of PLK3 (unknown origin) at 0.1 uM relative to control
[11] = target: Cyclin-dependent kinase 1/cyclin B1 (Homo sapiens) (UniProt P06493+P14635); experiment: Inhibition of CDK1/cyclinB (unknown origin) at 0.1 uM relative to control; type: protein-complex assay
[12] = target: Serine/threonine-protein kinase TBK1 (Homo sapiens) (UniProt Q9UHD2); experiment: Inhibition of TBK1 (unknown origin) at 0.1 uM relative to control
[13] = target: Serine/threonine-protein kinase Nek1 (Homo sapiens) (UniProt Q96PY6); experiment: Inhibition of NEK1 (unknown origin) at 0.1 uM relative to control
[14] = target: Receptor tyrosine-protein kinase erbB-4 (Homo sapiens) (UniProt Q15303); experiment: Inhibition of ErbB4 (unknown origin) at 0.1 uM relative to control
[15] = target: Homeodomain-interacting protein kinase 4 (Homo sapiens) (UniProt Q8NE63); experiment: Inhibition of HIPK4 (unknown origin) at 0.1 uM relative to control
[16] = target: Misshapen-like kinase 1 (Homo sapiens) (UniProt Q8N4C8); experiment: Inhibition of Mink1 (unknown origin) at 0.1 uM relative to control
[17] = target: Serine/threonine-protein kinase SIK2 (Homo sapiens) (UniProt Q9H0K1); experiment: Inhibition of SIK2 (unknown origin) at 0.1 uM relative to control
[18] = target: Mitogen-activated protein kinase 13 (Homo sapiens) (UniProt O15264); experiment: Inhibition of p38delta (unknown origin) at 0.1 uM relative to control
[19] = target: Mitogen-activated protein kinase kinase kinase 9 (Homo sapiens) (UniProt P80192); experiment: Inhibition of MLK1 (unknown origin) at 0.1 uM relative to control
[20] = target: Testis-specific serine/threonine-protein kinase 1 (Homo sapiens) (UniProt Q9BXA7); experiment: Inhibition of TSSK1 (unknown origin) at 0.1 uM relative to control
[21] = target: Ribosomal protein S6 kinase alpha-6 (Homo sapiens) (UniProt Q9UK32); experiment: Inhibition of Rsk4 (unknown origin) at 0.1 uM relative to control
[22] = target: Serine/threonine-protein kinase PAK 3 (Homo sapiens, UniProt O75914); experiment: Inhibition of PAK3 (unknown origin) at 0.1 uM relative to control
Homo sapiens = species: Homo sapiens; experiment: Inhibition of p70S6K (unknown origin) at 0.1 uM relative to control
[23] = target: Tyrosine-protein kinase SYK (Homo sapiens) (UniProt P43405); experiment: Inhibition of Syk (unknown origin) at 0.1 uM relative to control
[24] = target: Casein kinase I isoform epsilon (Homo sapiens) (UniProt P49674); experiment: Inhibition of CK1epsilon (unknown origin) at 0.1 uM relative to control
[25] = target: Mitogen-activated protein kinase 3 (Homo sapiens) (UniProt P27361); experiment: Inhibition of ERK1 (unknown origin) at 0.1 uM relative to control
[26] = target: Receptor-type tyrosine-protein kinase FLT3 (Homo sapiens) (UniProt P36888); experiment: Inhibition of Flt3 (unknown origin) at 0.1 uM relative to control
[27] = target: Aurora kinase A (Homo sapiens) (UniProt O14965); experiment: Inhibition of Aurora A (unknown origin) at 0.1 uM relative to control
[28] = target: Serine/threonine-protein kinase Nek9 (Homo sapiens) (UniProt Q8TD19); experiment: Inhibition of NEK9 (unknown origin) at 0.1 uM relative to control
[29] = target: Macrophage colony-stimulating factor 1 receptor (Homo sapiens) (UniProt P07333); experiment: Inhibition of CSF1R (unknown origin) at 0.1 uM relative to control
[30] = target: Mitogen-activated protein kinase 9 (Homo sapiens) (UniProt P45984); experiment: Inhibition of JNK2 (unknown origin) at 0.1 uM relative to control
[31] = target: Casein kinase I isoform gamma-2 (Homo sapiens) (UniProt P78368); experiment: Inhibition of CK1gamma2 (unknown origin) at 0.1 uM relative to control
[32] = target: Activin receptor type-1B (Homo sapiens) (UniProt P36896); experiment: Inhibition of ACVRB (unknown origin) at 0.1 uM relative to control
[33] = target: Insulin-like growth factor 1 receptor (Homo sapiens) (UniProt P08069); experiment: Inhibition of IGF1R (unknown origin) at 0.1 uM relative to control
[34] = target: Fibroblast growth factor receptor 2 (Homo sapiens) (UniProt P21802); experiment: Inhibition of FGFR2 (unknown origin) at 0.1 uM relative to control
[35] = target: Tyrosine-protein kinase ZAP-70 (Homo sapiens) (UniProt P43403); experiment: Inhibition of ZAP-70 (unknown origin) at 0.1 uM relative to control
[36] = target: Serine/threonine-protein kinase B-raf (Homo sapiens) (UniProt P15056); experiment: Inhibition of B-Raf (unknown origin) at 0.1 uM relative to control
[37] = target: Mitogen-activated protein kinase kinase kinase 8 (Homo sapiens) (UniProt P41279); experiment: Inhibition of Cot (unknown origin) at 0.1 uM relative to control
[38] = target: Tyrosine-protein kinase JAK2 (Homo sapiens) (UniProt O60674); experiment: Inhibition of JAK2 (unknown origin) at 0.1 uM relative to control

Chain of Cyclin-dependent kinase 1/cyclin B1 (Homo sapiens) (P06493 whole entry, looked up): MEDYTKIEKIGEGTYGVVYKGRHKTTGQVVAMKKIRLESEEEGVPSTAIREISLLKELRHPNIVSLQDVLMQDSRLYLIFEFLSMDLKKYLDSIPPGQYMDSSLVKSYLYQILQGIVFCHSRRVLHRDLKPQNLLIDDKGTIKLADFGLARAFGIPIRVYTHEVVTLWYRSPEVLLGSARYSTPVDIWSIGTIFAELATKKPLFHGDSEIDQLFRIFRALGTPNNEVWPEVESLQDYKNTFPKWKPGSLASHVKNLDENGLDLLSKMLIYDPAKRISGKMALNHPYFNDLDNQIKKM
Chain of Cyclin-dependent kinase 1/cyclin B1 (Homo sapiens) (P14635 whole entry, looked up): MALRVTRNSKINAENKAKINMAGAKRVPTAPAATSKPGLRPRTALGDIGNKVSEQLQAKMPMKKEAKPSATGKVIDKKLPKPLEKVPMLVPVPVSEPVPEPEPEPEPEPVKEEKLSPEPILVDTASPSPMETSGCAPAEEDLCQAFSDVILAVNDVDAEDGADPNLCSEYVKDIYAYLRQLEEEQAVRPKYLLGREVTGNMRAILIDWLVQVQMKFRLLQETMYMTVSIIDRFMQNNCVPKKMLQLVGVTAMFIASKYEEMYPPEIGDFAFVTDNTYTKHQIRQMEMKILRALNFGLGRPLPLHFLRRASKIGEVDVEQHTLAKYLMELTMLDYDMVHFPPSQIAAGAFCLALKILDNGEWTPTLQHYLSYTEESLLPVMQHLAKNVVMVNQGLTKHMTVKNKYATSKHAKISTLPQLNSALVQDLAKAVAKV
Chain of Casein kinase I isoform epsilon (Homo sapiens) (P49674 whole entry, looked up, canonical isoform): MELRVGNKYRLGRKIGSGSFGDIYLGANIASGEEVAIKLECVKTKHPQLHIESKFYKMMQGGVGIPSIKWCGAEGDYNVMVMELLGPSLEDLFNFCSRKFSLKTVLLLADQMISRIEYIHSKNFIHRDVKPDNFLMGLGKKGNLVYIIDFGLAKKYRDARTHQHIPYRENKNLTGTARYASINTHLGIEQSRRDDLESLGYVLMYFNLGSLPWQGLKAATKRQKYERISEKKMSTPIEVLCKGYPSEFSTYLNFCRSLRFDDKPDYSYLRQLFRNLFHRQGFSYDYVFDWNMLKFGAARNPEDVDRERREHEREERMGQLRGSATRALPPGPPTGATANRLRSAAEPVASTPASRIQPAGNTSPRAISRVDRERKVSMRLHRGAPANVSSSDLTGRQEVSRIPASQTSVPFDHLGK
Chain of Misshapen-like kinase 1 (Homo sapiens) (Q8N4C8 whole entry, looked up): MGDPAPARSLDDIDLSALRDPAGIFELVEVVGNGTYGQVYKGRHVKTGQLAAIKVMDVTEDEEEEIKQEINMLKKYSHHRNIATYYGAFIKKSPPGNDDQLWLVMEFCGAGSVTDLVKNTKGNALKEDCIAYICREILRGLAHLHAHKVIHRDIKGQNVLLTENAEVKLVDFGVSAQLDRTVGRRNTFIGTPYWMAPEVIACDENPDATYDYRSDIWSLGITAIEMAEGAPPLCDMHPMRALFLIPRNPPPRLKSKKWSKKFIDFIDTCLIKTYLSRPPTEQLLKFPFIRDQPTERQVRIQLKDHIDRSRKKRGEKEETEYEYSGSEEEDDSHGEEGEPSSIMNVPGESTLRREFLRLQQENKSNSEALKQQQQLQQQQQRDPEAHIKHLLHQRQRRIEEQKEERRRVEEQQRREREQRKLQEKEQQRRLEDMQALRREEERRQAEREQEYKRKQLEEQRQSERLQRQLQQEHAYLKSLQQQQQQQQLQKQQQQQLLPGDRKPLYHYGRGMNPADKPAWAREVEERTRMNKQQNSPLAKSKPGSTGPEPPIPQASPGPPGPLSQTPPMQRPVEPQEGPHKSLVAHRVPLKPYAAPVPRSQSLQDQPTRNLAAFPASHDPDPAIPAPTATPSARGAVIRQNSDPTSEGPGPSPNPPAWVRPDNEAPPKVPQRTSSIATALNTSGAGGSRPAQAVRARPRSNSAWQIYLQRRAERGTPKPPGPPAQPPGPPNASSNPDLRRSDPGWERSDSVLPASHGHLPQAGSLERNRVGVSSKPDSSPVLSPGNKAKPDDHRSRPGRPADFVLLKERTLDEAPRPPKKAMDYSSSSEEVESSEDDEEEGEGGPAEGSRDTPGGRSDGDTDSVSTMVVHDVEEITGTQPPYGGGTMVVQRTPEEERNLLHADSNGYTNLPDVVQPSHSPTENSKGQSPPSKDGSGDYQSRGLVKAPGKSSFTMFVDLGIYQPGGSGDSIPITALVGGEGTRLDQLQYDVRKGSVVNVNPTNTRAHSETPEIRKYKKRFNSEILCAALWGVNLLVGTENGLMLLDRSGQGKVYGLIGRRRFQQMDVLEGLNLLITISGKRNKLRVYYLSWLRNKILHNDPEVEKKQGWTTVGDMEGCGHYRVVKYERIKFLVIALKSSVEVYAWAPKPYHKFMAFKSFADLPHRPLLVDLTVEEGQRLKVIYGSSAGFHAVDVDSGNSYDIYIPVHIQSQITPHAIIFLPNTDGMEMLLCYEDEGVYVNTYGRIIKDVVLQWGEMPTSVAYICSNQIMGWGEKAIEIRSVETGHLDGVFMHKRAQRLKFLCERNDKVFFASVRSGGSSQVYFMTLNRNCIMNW
Chain of Ephrin type-A receptor 2 (Homo sapiens) (P29317 whole entry): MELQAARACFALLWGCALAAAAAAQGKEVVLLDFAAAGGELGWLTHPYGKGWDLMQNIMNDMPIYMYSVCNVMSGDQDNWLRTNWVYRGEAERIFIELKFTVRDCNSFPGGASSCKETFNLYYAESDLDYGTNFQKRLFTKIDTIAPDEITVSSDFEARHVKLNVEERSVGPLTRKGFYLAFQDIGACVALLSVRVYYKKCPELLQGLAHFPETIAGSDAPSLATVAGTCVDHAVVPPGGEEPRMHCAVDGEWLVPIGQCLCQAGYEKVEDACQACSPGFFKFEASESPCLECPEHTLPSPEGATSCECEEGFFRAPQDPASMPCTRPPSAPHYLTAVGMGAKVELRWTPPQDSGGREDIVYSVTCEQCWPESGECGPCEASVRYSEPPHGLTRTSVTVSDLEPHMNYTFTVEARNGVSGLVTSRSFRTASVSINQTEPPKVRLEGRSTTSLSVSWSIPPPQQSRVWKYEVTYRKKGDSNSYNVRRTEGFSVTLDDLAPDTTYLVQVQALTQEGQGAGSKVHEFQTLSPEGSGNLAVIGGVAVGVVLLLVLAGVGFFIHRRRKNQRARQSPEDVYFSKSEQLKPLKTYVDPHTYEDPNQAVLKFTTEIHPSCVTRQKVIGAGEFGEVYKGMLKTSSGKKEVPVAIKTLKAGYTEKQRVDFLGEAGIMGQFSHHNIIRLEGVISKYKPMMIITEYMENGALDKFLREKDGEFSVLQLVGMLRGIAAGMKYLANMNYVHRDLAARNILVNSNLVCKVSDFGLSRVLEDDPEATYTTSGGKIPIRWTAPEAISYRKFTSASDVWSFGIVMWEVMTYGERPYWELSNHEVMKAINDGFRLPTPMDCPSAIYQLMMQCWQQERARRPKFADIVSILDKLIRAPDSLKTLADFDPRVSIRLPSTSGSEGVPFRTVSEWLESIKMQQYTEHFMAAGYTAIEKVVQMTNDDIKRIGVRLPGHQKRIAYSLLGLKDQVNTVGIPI
Chain of Mitogen-activated protein kinase kinase kinase kinase 4 (Homo sapiens) (O95819 2-1239 limits assumed): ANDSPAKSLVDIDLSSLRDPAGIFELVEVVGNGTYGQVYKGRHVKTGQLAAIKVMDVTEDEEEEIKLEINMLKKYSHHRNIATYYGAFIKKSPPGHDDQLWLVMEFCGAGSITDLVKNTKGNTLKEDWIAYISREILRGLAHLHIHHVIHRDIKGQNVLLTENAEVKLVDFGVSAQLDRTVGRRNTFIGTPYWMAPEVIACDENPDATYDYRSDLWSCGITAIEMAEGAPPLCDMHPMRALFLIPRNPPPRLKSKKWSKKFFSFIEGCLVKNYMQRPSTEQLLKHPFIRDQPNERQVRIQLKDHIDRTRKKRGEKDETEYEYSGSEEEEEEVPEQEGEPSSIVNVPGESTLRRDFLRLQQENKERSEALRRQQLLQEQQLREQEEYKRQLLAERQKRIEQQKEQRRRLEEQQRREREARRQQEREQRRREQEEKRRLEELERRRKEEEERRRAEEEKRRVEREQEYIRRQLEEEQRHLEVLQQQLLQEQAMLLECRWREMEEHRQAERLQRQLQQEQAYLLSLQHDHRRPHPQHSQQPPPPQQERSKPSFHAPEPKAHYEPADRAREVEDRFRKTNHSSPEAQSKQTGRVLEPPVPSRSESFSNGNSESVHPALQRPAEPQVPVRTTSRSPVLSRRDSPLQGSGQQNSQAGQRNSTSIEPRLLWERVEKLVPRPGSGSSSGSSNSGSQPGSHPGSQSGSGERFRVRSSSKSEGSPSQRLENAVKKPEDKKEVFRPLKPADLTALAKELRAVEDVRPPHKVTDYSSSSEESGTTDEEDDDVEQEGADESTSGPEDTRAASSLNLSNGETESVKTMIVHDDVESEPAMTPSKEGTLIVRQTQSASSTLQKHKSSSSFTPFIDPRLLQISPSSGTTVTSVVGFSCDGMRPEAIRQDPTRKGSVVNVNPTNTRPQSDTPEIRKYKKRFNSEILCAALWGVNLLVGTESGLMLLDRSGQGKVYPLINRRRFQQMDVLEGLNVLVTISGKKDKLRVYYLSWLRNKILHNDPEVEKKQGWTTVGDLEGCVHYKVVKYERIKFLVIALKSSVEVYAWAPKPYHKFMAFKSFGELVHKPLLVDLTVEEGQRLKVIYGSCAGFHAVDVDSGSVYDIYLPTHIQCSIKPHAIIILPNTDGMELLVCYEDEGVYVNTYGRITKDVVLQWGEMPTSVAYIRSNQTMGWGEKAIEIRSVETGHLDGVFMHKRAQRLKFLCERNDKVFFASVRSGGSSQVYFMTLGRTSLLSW
Chain of Mitogen-activated protein kinase 13 (Homo sapiens) (O15264 whole entry): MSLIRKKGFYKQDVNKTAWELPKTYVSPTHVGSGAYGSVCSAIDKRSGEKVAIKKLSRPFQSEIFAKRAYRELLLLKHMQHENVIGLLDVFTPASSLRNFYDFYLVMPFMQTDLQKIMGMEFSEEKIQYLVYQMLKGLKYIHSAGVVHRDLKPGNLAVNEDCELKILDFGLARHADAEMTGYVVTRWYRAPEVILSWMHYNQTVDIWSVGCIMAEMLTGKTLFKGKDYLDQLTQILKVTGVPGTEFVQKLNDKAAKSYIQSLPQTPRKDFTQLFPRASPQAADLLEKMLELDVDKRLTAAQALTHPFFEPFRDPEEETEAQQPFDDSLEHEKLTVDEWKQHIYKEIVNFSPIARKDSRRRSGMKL

Row | inhibition [1] [%] | inhibition [2] [%] | inhibition [3] [%] | inhibition [4] [%] | inhibition [5] [%] | inhibition [6] [%] | inhibition [7] [%] | inhibition [8] [%] | inhibition [9] [%] | inhibition [10] [%] | inhibition [11] [%] | inhibition [12] [%] | inhibition [13] [%] | inhibition [14] [%] | inhibition [15] [%] | inhibition [16] [%] | inhibition [17] [%] | inhibition [18] [%] | inhibition [19] [%] | inhibition [20] [%] | SMILES | also measured
1 | 37 | 43.5 | 86.3 | 19.1 | 70.2 | 8.3 | 104 | 37 | 78.9 | -5.8 | 16.5 | 4.3 | 1.5 | 78.9 | 18.6 | 97 | 96.3 | 5.1 | 11.4 | 28 | CN1CCc2cc(-c3cnc4[nH]cc(C(=O)c5ccccc5Cl)c4c3)ccc2C1 | inhibition [21]: 11.9%; inhibition [22]: 92.6%; inhibition (Homo sapiens): 15.3%; inhibition [23]: 37.1%; inhibition [24]: 44%; inhibition [25]: 12.3%; inhibition [26]: 83.4%; inhibition [27]: 25.9%; inhibition [28]: -0.9%; inhibition [29]: 85.7%; inhibition [30]: 14.8%; inhibition [31]: -1.5%; inhibition [32]: 79.3%; inhibition [33]: 6.5%; inhibition [34]: 55.6%; inhibition [35]: 4.5%; inhibition [36]: 49%; inhibition [37]: 19.6%; inhibition [38]: 50.3%
2 | 5.5 | 15 | 0.8 | -3.5 | 5.9 | 12.5 | 14.6 | -5.5 | 5.3 | 9.2 | 8.1 | 11.6 | 0.3 | -1 | 5 | 4.4 | 0.8 | 8.4 | 15.4 | 6.2 | COCCNc1nc2ccc(C#CC3(O)CCCCC3)cc2n1-c1ccnc(N)n1 | inhibition [21]: 2.4%; inhibition [22]: 3.3%; inhibition (Homo sapiens): 7.2%; inhibition [23]: 4.3%; inhibition [24]: 7.3%; inhibition [25]: 6.2%; inhibition [26]: 8.7%; inhibition [27]: 10.3%; inhibition [28]: 1.6%; inhibition [29]: 2.5%; inhibition [30]: -1%; inhibition [31]: 18.3%; inhibition [32]: -0.1%; inhibition [33]: 2.9%; inhibition [34]: 6.8%; inhibition [35]: 2.4%; inhibition [36]: 8.2%; inhibition [37]: 2.8%; inhibition [38]: 3.4%
